Experiment: Powder characteristics (Carr index, anti-caking property, fluidity) by intelligent powder comprehensive characteristic tester
Format: physicochemical
Set-up: key to Fluidity: Good: “good” means good solid state and good fluidity, which is favorable for formulation development; Less good: “less good” means average fluidity; Poor: “poor” means poor fluidity, which cannot be used for formulation development; key to Anti-caking property: Good: “good” means substantially no agglomeration or clumping; Less good: “less good” means partial clumping or agglomeration; Poor: “poor” means severe or complete clumping
Text: The performance of the drug powder is influenced by various factors, among which the fluidity, anti-caking property and the like of the starting material drug (i.e., active pharmaceutical ingredient) play a key role in the formulation design, the quality control, the process design, the industrial production and the like of the drug. In the pharmaceutical field, poor fluidity mainly affects the uniformity of the mixed material, and such mixed material is easy to delaminate and has uneven material content; at the same time, the resulting tablet are easy to delaminate during tableting, resulting in inconsistent content of the tablet pressed at different times, and it is easy to cause a significant difference in tablet weight.
The fluidity, the anti-caking property and the like of compound 1 (i.e., (6E)-6-[(6-chloro-2-methyl-2H-indazol-5-yl)imino]-3-[(1-methyl-1H-1,2,4-triazol-3-yl)methyl]-1-(2,4,5-trifluorobenzyl)-1,3,5-triazinane-2,4-dione with different purities) in the above Comparative Examples 1-2 and Examples 1-12 were measured by an intelligent powder comprehensive characteristic tester (HMKTest LABULK, model: HMKFlow 6393 PT1000).
The Carr index reflects the quality of the fluidity, and a smaller value indicates better fluidity, while a Carr index of more than 23% generally indicates poor fluidity. For anti-caking property, “good” means substantially no agglomeration or clumping, “less good” means partial clumping or agglomeration, and “poor” means severe or complete clumping. For fluidity, “good” means good solid state and good fluidity, which is favorable for formulation development; “less good” means average fluidity; and “poor” means poor fluidity, which cannot be used for formulation development.
Similarly, the fluidity of the fumarate salt solid form of compound 1 prepared in the above Examples 28-29 and Comparative Example 3 was measured.

[1] = solid form of compound 1, smaller value = better fluidity, more than 23% generally indicates poor fluidity
[2] = fumarate salt solid form of compound 1

Q: Which results are given for Cn1cnc(Cn2c(=O)[nH]/c(=N\c3cc4cn(C)nc4cc3Cl)n(Cc3cc(F)c(F)cc3F)c2=O)n1 [Example 7, (6E)-6-[(6-chloro-2-methyl-2H-indazol-5-yl)imino]-3-[(1-methyl-1H-1,2,4-triazol-3-yl)methyl]-1-(2,4,5-trifluorobenzyl)-1,3,5-triazinane-2,4-dione]?
A: Anti-caking property (solid form of compound 1): Less good; Fluidity (solid form of compound 1): Good; Carr index (%) [1]: 17.1%

Q: For Cn1cnc(Cn2c(=O)[nH]/c(=N\c3cc4cn(C)nc4cc3Cl)n(Cc3cc(F)c(F)cc3F)c2=O)n1 [Example 1, (6E)-6-[(6-chloro-2-methyl-2H-indazol-5-yl)imino]-3-[(1-methyl-1H-1,2,4-triazol-3-yl)methyl]-1-(2,4,5-trifluorobenzyl)-1,3,5-triazinane-2,4-dione], which Anti-caking property (solid form of compound 1) is on record?
A: The Anti-caking property was “Less good”.

Q: And the Fluidity (solid form of compound 1)?
A: The Fluidity was “Good”.

Q: And the “Carr index (%)” value [1]?
A: The value was 21.4%.

Q: What does the source list for Cn1cnc(Cn2c(=O)[nH]/c(=N\c3cc4cn(C)nc4cc3Cl)n(Cc3cc(F)c(F)cc3F)c2=O)n1 [Comparative Example 3, (6E)-6-[(6-chloro-2-methyl-2H-indazol-5-yl)imino]-3-[(1-methyl-1H-1,2,4-triazol-3-yl)methyl]-1-(2,4,5-trifluorobenzyl)-1,3,5-triazinane-2,4-dione, reference compound]?
A: Anti-caking property [2]: poor and Poor; Carr index (%) [2]: 36.1%; Fluidity [2]: poor and Poor

Q: Which Anti-caking property (solid form of compound 1) does the source give for Cn1cnc(Cn2c(=O)[nH]/c(=N\c3cc4cn(C)nc4cc3Cl)n(Cc3cc(F)c(F)cc3F)c2=O)n1 [Example 2, (6E)-6-[(6-chloro-2-methyl-2H-indazol-5-yl)imino]-3-[(1-methyl-1H-1,2,4-triazol-3-yl)methyl]-1-(2,4,5-trifluorobenzyl)-1,3,5-triazinane-2,4-dione] here?
A: Its Anti-caking property is “Less good”.

Q: And the Fluidity (solid form of compound 1)?
A: The Fluidity was “Good”.

Q: What about the “Carr index (%)” value [1] of the same compound?
A: Its value is 20.7%.

Q: With Cn1cnc(Cn2c(=O)[nH]/c(=N\c3cc4cn(C)nc4cc3Cl)n(Cc3cc(F)c(F)cc3F)c2=O)n1 [Example 29, (6E)-6-[(6-chloro-2-methyl-2H-indazol-5-yl)imino]-3-[(1-methyl-1H-1,2,4-triazol-3-yl)methyl]-1-(2,4,5-trifluorobenzyl)-1,3,5-triazinane-2,4-dione] as the compound, how does the Anti-caking property [2] read?
A: Its Anti-caking property is “Less good”.

Q: What about the “Carr index (%)” value [2] of the same compound?
A: The value was 12.1%.

Q: And the Fluidity [2]?
A: The Fluidity was “Good”.

Q: What does the source list for Cn1cnc(Cn2c(=O)[nH]/c(=N\c3cc4cn(C)nc4cc3Cl)n(Cc3cc(F)c(F)cc3F)c2=O)n1 [Example 9, (6E)-6-[(6-chloro-2-methyl-2H-indazol-5-yl)imino]-3-[(1-methyl-1H-1,2,4-triazol-3-yl)methyl]-1-(2,4,5-trifluorobenzyl)-1,3,5-triazinane-2,4-dione]?
A: Anti-caking property (solid form of compound 1): Good; Fluidity (solid form of compound 1): Good; Carr index (%) [1]: 12.6%

Q: With Cn1cnc(Cn2c(=O)[nH]/c(=N\c3cc4cn(C)nc4cc3Cl)n(Cc3cc(F)c(F)cc3F)c2=O)n1 [Example 12, (6E)-6-[(6-chloro-2-methyl-2H-indazol-5-yl)imino]-3-[(1-methyl-1H-1,2,4-triazol-3-yl)methyl]-1-(2,4,5-trifluorobenzyl)-1,3,5-triazinane-2,4-dione] as the compound, how does the Anti-caking property (solid form of compound 1) read?
A: The Anti-caking property was “Good”.

Q: What about the Fluidity (solid form of compound 1) of the same compound?
A: The Fluidity was “Good”.

Q: And the “Carr index (%)” value [1]?
A: The value was 15.1%.

Q: Which Anti-caking property (solid form of compound 1) does the source give for Cn1cnc(Cn2c(=O)[nH]/c(=N\c3cc4cn(C)nc4cc3Cl)n(Cc3cc(F)c(F)cc3F)c2=O)n1 [Example 3, (6E)-6-[(6-chloro-2-methyl-2H-indazol-5-yl)imino]-3-[(1-methyl-1H-1,2,4-triazol-3-yl)methyl]-1-(2,4,5-trifluorobenzyl)-1,3,5-triazinane-2,4-dione] here?
A: Its Anti-caking property is “Less good”.

Q: What about the Fluidity (solid form of compound 1) of the same compound?
A: Its Fluidity is “Good”.

Q: What about the “Carr index (%)” value [1] of the same compound?
A: The value was 18.7%.

Q: Which results are given for Cn1cnc(Cn2c(=O)[nH]/c(=N\c3cc4cn(C)nc4cc3Cl)n(Cc3cc(F)c(F)cc3F)c2=O)n1 [Example 10, (6E)-6-[(6-chloro-2-methyl-2H-indazol-5-yl)imino]-3-[(1-methyl-1H-1,2,4-triazol-3-yl)methyl]-1-(2,4,5-trifluorobenzyl)-1,3,5-triazinane-2,4-dione]?
A: Anti-caking property (solid form of compound 1): Good; Fluidity (solid form of compound 1): Good; Carr index (%) [1]: 13.4%

Q: Which results are given for Cn1cnc(Cn2c(=O)[nH]/c(=N\c3cc4cn(C)nc4cc3Cl)n(Cc3cc(F)c(F)cc3F)c2=O)n1 [Example 11, (6E)-6-[(6-chloro-2-methyl-2H-indazol-5-yl)imino]-3-[(1-methyl-1H-1,2,4-triazol-3-yl)methyl]-1-(2,4,5-trifluorobenzyl)-1,3,5-triazinane-2,4-dione]?
A: Anti-caking property (solid form of compound 1): Good; Fluidity (solid form of compound 1): Good; Carr index (%) [1]: 14.1%

Q: What does the source list for Cn1cnc(Cn2c(=O)[nH]/c(=N\c3cc4cn(C)nc4cc3Cl)n(Cc3cc(F)c(F)cc3F)c2=O)n1.O=C(O)/C=C/C(=O)O [Example 28, (6E)-6-[(6-chloro-2-methyl-2H-indazol-5-yl)imino]-3-[(1-methyl-1H-1,2,4-triazol-3-yl)methyl]-1-(2,4,5-trifluorobenzyl)-1,3,5-triazinane-2,4-dione fumarate salt]?
A: Anti-caking property [2]: Good; Carr index (%) [2]: 11.3%; Fluidity [2]: Good

Q: Which Anti-caking property (solid form of compound 1) does the source give for Cn1cnc(Cn2c(=O)[nH]/c(=N\c3cc4cn(C)nc4cc3Cl)n(Cc3cc(F)c(F)cc3F)c2=O)n1 [Comparative Example 1, (6E)-6-[(6-chloro-2-methyl-2H-indazol-5-yl)imino]-3-[(1-methyl-1H-1,2,4-triazol-3-yl)methyl]-1-(2,4,5-trifluorobenzyl)-1,3,5-triazinane-2,4-dione, reference compound] here?
A: Its Anti-caking property is “Poor”.

Q: What about the Fluidity (solid form of compound 1) of the same compound?
A: Its Fluidity is “Poor”.

Q: What about the “Carr index (%)” value [1] of the same compound?
A: Its value is 42.1%.

Q: What does the source list for Cn1cnc(Cn2c(=O)[nH]/c(=N\c3cc4cn(C)nc4cc3Cl)n(Cc3cc(F)c(F)cc3F)c2=O)n1 [Example 8, (6E)-6-[(6-chloro-2-methyl-2H-indazol-5-yl)imino]-3-[(1-methyl-1H-1,2,4-triazol-3-yl)methyl]-1-(2,4,5-trifluorobenzyl)-1,3,5-triazinane-2,4-dione]?
A: Anti-caking property (solid form of compound 1): Less good; Fluidity (solid form of compound 1): Good; Carr index (%) [1]: 21.2%

Q: For Cn1cnc(Cn2c(=O)[nH]/c(=N\c3cc4cn(C)nc4cc3Cl)n(Cc3cc(F)c(F)cc3F)c2=O)n1 [Example 5, (6E)-6-[(6-chloro-2-methyl-2H-indazol-5-yl)imino]-3-[(1-methyl-1H-1,2,4-triazol-3-yl)methyl]-1-(2,4,5-trifluorobenzyl)-1,3,5-triazinane-2,4-dione], which Anti-caking property (solid form of compound 1) is on record?
A: The Anti-caking property was “Less good”.

Q: What about the Fluidity (solid form of compound 1) of the same compound?
A: The Fluidity was “Good”.

Q: What about the “Carr index (%)” value [1] of the same compound?
A: Its value is 18.8%.

Q: What does the source list for Cn1cnc(Cn2c(=O)[nH]/c(=N\c3cc4cn(C)nc4cc3Cl)n(Cc3cc(F)c(F)cc3F)c2=O)n1 [Comparative Example 2, (6E)-6-[(6-chloro-2-methyl-2H-indazol-5-yl)imino]-3-[(1-methyl-1H-1,2,4-triazol-3-yl)methyl]-1-(2,4,5-trifluorobenzyl)-1,3,5-triazinane-2,4-dione, reference compound]?
A: Anti-caking property (solid form of compound 1): Poor; Fluidity (solid form of compound 1): Poor; Carr index (%) [1]: 39.4%

Q: With Cn1cnc(Cn2c(=O)[nH]/c(=N\c3cc4cn(C)nc4cc3Cl)n(Cc3cc(F)c(F)cc3F)c2=O)n1 [Example 4, (6E)-6-[(6-chloro-2-methyl-2H-indazol-5-yl)imino]-3-[(1-methyl-1H-1,2,4-triazol-3-yl)methyl]-1-(2,4,5-trifluorobenzyl)-1,3,5-triazinane-2,4-dione] as the compound, how does the Anti-caking property (solid form of compound 1) read?
A: The Anti-caking property was “Less good”.

Q: What about the Fluidity (solid form of compound 1) of the same compound?
A: The Fluidity was “Good”.

Q: What about the “Carr index (%)” value [1] of the same compound?
A: Its value is 19.4%.

Q: With Cn1cnc(Cn2c(=O)[nH]/c(=N\c3cc4cn(C)nc4cc3Cl)n(Cc3cc(F)c(F)cc3F)c2=O)n1 [Example 6, (6E)-6-[(6-chloro-2-methyl-2H-indazol-5-yl)imino]-3-[(1-methyl-1H-1,2,4-triazol-3-yl)methyl]-1-(2,4,5-trifluorobenzyl)-1,3,5-triazinane-2,4-dione] as the compound, how does the Anti-caking property (solid form of compound 1) read?
A: Its Anti-caking property is “Less good”.

Q: And the Fluidity (solid form of compound 1)?
A: The Fluidity was “Good”.

Q: What about the “Carr index (%)” value [1] of the same compound?
A: Its value is 18.5%.

From patent US11840526B2, “Compounds and method for preparing the same” (BEIJING GRAND JOHAMU PHARMACEUTICAL COMPANY, LTD., priority 2022, dated 2023)
